Experiment [1] relates to MYXV. Briefly: Viral replication assay: progeny virus titration on permissive rabbit RK13 cells. The format is cell-based, myxoma virus. The conditions noted are these: PANC-1, Colo205, and MDA-MB435; selinexor; 24, 48, 72 h. As to the method: Viral titers in different human cancer cell lines were determined using a viral replication assay. Cells were seeded in 24-well plates (2×10^5 cells/well). The next day, the cells were treated with different concentrations of leptomycin B (LMB) or selinexor diluted in DMEM for 1 hour. MYXV was added to the cells and incubated for one hour at 37° C. After 1 hour, the unbound viruses were washed away using DMEM, and DMEM with LMB or selinexor was added to the cells. Cells were harvested in DMEM without LMB or selinexor at the indicated time points. After harvesting the cells, they were stored at −80° C. until processing. Samples were subjected to three freeze/thaw cycles and one-minute sonification to lyse cells and release the viral particles. Afterwards, different dilutions were prepared in DMEM and plated on rabbit RK13 and foci were counted after 48 hours using a fluorescent microscope. All assays and dilutions were performed in triplicate.

For experiment [2], the system named is MYXV. The experiment is described as follows: MYXV infection of 3D spheroid cultures of human cancer cells (GFP/TdTomato fluorescence). The format is cell-based, myxoma virus. The source says:
In vitro three-dimensional (3D) cell culture allows cells to contact each other and form a platform representing in vivo tumor masses (Lv, D., et al., 2017, Oncology Letters, 14:6999-7010). As an initial test whether selinexor can enhance MYXV replication in tumor masses, a 3D cell culture using type 1 collagen was established. The semi-permissive and non-permissive human cancer cells PANC-1 (FIG. 6A), MDA-MB435 (FIG. 6C), HT29 (FIG. 6E), and Colo205 (FIG. 6G) were used to form 3D spheroids in 96 well plates. After several days of incubation, the cells formed spheroids.
After reaching a desirable size, spheroids were mock-treated or treated with different concentrations of selinexor (e.g., 0.1 μM, 1 μM) for one hour then infected with vMyx-GFP-TdTomato (1×10^7 FFU) in the presence of selinexor.
Spheroid Generation and Virus Infection: Different cancer cell lines were grown and maintained as previously described and used for spheroid generation within 2-5 passages. 96-well plates were prepared with rat tail collagen I to form the surface for spheroid culture. On the day of cell seeding for spheroid generation, the cells were dissociated with TrypLE, the TrypLE neutralized with fresh complete media, the cells spun down, and resuspended in fresh complete media. After making a single cell suspension, cells were counted using a Countess II automated cell counter and 1000 cells in 100 μL were plated on the surface of the collagen matrix. The cells were observed daily for spheroid formation. After 5-7 days, when spheroids reached the desired size, they were treated with selinexor and infected with vMyx-GFP-TdTomato.

For another experiment, the system named is Colo205 xenograft tumors. The experiment is described as follows: Colo205 xenograft tumor model in NSG mice. The format is in vivo. The protocol:
To test the ability of selinexor to enhance MYXV replication in vivo, a xenograft tumor model was established in immunodeficient NSG mice. Human Colo205 (FIG. 7) and HT29 (FIG. 8) cells were injected subcutaneously on both sides of the flank to generate tumors (FIG. 7A). After the tumors size reached between 100-200 mm^3 (2-3 weeks), mice were separated into treatment groups to have approximately equal average tumor sizes. Animals (n=5) were treated with PBS (oral and IT right tumor), selinexor (oral, 15 mg/kg), vMyx-Fluc (wild-type MYXV expressing Firefly luciferase and TdTomato; IT left tumor, 1×10^7 FFU), or selinexor (oral) and vMyx-Fluc (IT left tumor). After 48 hours post-treatment mice were imaged using an IVIS system for luciferase expression. […] Subsequently, mice received 2nd and 3rd doses of selinexor and a second IT injection of MYXV in the same tumor. […] Additionally, tumor burden was measured on both flanks during the course of treatment (FIG. 7F, FIG. 7G, FIG. 8E, and FIG. 8F).
Animal Studies: Male and female NSG mice were purchased from Jackson laboratory at 6-8 weeks of age. Animals were housed under sterile conditions. The animals were acclimatized for at least seven days before tumor implantation or any experimental procedures. Cells (1×10^6/mouse in 100 μL PBS) were subcutaneously injected into the flanks of NSG mice. When the average tumor volumes reached 50-200 mm^3, the mice were randomized into different treatment groups of five or six animals such that each treatment group had approximately the same average tumor volume. Tumor volume was measured two or three times per week as follows: volume=(length×width^2)/2. When the tumor volume reached 1.5-2 cm^3 animals were euthanized and tumors were collected for histology or processed for virus titration. To detect MYXV replication in the tumor bed luciferin was injected via IP delivery and bioluminescence images taken (Xenogen IVIS 2000).

Experiment [3] relates to Lewis lung carcinoma (LLC1) cells. The experiment is described as follows: Lewis lung carcinoma (LLC1) tumor model in immunocompetent C57BL/6 mice. Conditions: single agents; selinexor 15 mg/kg oral; MYXV expressing IL15/IL15Ra (vMyx-IL15Ra) IT 5×10^7 FFU; left and right tumors. The format is in vivo. As to the method: To verify that the combination of selinexor and MYXV is effective even in mice with a competent immune system, C57BL/6 mice were inoculated with mouse Lewis lung carcinoma (LLC1) cells (FIG. 14A). LLC1 cells were subcutaneously injected on both sides of the flank in C57BL/6 mice. Mice were separated into treatment groups and treated with PBS, selinexor, MYXV expressing IL15/IL15Ra (IT, 5×10^7), or selinexor+MYXV expressing IL15/IL15Ra.
The tumor burden on each flank was measured twice every week.

Experiment [4] relates to MYXV. The experiment is described as follows: MYXV reporter gene expression (GFP/TdTomato) and foci by fluorescence microscopy in human cancer cell lines.

For `O=C(/C=C\n1cnc(-c2cc(C(F)(F)F)cc(C(F)(F)F)c2)n1)NNc1cnccn1` [selinexor], the “increase in virus production compared to infection with MYXV alone” value with MYXV [1] was 10-100 fold. The “GFP (early/late) and TdTomato (late) expression in spheroids by fluorescence microscopy” value with MYXV [2] (PANC-1, MDA-MB435, HT29, Colo205 spheroids, selinexor 0.1 or 1 μM, vMyx-GFP-TdTomato 1×10^7 FFU) is on record as “enhanced”. In the experiment with MYXV [2] (selinexor plus MYXV compared to MYXV infection alone), the “virus penetration into spheroids” value is on record as “greater penetration into the spheroid interior”. In addition, in the experiment on MYXV [2] (selinexor-treated vs untreated infected spheroids, 72-96 h post-infection), the “quantification of GFP fluorescence in spheroids” value was “significant increase in the level of GFP expression”. Moreover, the “luciferase expression (IVIS) vs virus alone” value in the experiment on Colo205 xenograft tumors (48 hours after first vMyx-Fluc IT injection, selinexor oral 15 mg/kg) is recorded as “significantly higher levels of luciferase”. Moreover, in the experiment on Colo205 xenograft tumors (after second treatment), the “luciferase signal (IVIS) vs virus alone” value was “significantly enhanced level of luciferase signal”. In addition, in the experiment on Colo205 xenograft tumors (both flanks, selinexor oral 15 mg/kg, vMyx-Fluc IT 1×10^7 FFU), the “tumor burden compared to PBS or MYXV-only” value was “significantly reduced tumor burden”. The tumor burden entry in experiment [3] is “significantly reduced tumor burden”. Moreover, the “GFP and TdTomato reporter protein expression” value in the experiment with MYXV [4] (PANC-1, Colo205, MDA-MB435, HCT116, selinexor 0.1-10 μM pre-treatment 1 h, vMyx-GFP-TdTomato MOI 5, 48 h post-infection) was “Enhanced GFP and TdTomato reporter protein expression”. The “foci formation in restricted human cancer cell lines” value in the experiment on MYXV [4] (infected at low MOI, selinexor treatment) is recorded as “formation of small foci”. For the same compound, in the experiment with MYXV [4] (selinexor 10 μM or higher, all cancer cell lines tested), the “cell death caused by selinexor alone” value is recorded as “enhanced cell death”.

Values taken from US20250249056A1, “CANCER THERAPIES COMPRISING A NUCLEAR EXPORT INHIBITOR AND AN ONCOLYTIC VIRUS” (priority 2022, published 2025).
